Data on four compounds can be found in patent US10080741B2, “Isoxazole derivatives as FXR agonists and methods of use thereof” (Enanta Pharmaceuticals, Inc., priority 2016, dated 2018).

This test has as its target T1, human FXR (NR1H4) (Homo sapiens, UniProt Q96RI1).
T1 construct: host or cells: CHO (Chinese hamster ovary) reporter cells
T1 sequence (Q96RI1 1-486): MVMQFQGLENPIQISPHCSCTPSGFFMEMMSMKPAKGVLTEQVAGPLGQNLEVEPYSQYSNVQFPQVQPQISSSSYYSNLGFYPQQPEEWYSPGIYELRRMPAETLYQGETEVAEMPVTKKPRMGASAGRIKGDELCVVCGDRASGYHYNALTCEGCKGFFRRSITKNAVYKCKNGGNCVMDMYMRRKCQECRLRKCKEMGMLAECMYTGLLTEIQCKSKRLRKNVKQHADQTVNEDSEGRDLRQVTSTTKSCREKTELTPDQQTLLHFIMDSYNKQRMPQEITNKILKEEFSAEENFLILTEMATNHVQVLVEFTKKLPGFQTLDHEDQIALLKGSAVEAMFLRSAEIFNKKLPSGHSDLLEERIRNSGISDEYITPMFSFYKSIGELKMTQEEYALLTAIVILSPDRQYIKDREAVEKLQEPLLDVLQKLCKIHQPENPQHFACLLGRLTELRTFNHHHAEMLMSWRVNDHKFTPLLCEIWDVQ
In words: Human FXR (NR1H4) Assay, luciferase reporter in CHO cells (Indigo Bioscience kit IB00601). Format: cell-based. To be noted: for EC50: CHO cells expressing human NR1H4, 22 hours incubation, potency ranges; for Efficacy (%): efficacy normalized to CDCA set as 100%. The source says:
Human FXR (NR1H4) Assay Determination of a ligand mediated Gal4 promoter driven transactivation to quantify ligand binding mediated activation of FXR. FXR Reporter Assay kit purchased from Indigo Bioscience (Catalogue number: IB00601) to determine the potency and efficacy of compound developed by Enanta that can induce FXR activation. The principle application of this reporter assay system is to quantify functional activity of human FXR. The assay utilizes non-human mammalian cells, CHO (Chinese hamster ovary) cells engineered to express human NR1H4 protein (referred to as FXR). Reporter cells also incorporate the cDNA encoding beetle luciferase which catalyzes the substrates and yields photon emission. Luminescence intensity of the reaction is quantified using a plate-reading luminometer, Envision. Reporter Cells include the luciferase reporter gene functionally linked to an FXR responsive promoter. Thus, quantifying changes in luciferase expression in the treated reporter cells provides a sensitive surrogate measure of the changes in FXR activity. […] The assay is according to the manufacturer's instructions. […] Retrieve Reporter Cells from −80° C. storage. Perform a rapid thaw of the frozen cells by transferring a 10 ml volume of 37° C. cell recovery medium into the tube of frozen cells. Recap the tube of Reporter Cells and immediately place it in a 37° C. water bath for 5-10 minutes. Retrieve the tube of Reporter Cell Suspension from the water bath. Sanitize the outside surface of the tube with a 70% alcohol swab, and then transfer it into the cell culture hood. Dispense 90 μl of cell suspension into each well of the 96-well Assay Plate. Transfer the plate into 37° C. incubator, allowing the cells adherent to the bottom of the well. Dilute compounds in Dilution Plate (DP), and administrate to cells at Assay Plate (AP). DMSO content of the samples was kept at 0.2%. Cells were incubated for additional 22 hours before luciferase activities were measured. Thirty minutes before intending to quantify FXR activity, remove Detection Substrate and Detection Buffer from the refrigerator and place them in a low-light area so that they may equilibrate to room temperature. Remove the plate's lid and discard all media contents by ejecting it into an appropriate waste container. Gently tap the inverted plate onto a clean absorbent paper towel to remove residual droplets. Cells will remain tightly adhered to well bottoms. Add 100 μl of luciferase detection reagent to each well of the assay plate. Allow the assay plate to rest at room temperature for at least 5 minutes following the addition of LDR. Set the instrument (Envision) to perform a single 5 second “plate shake” prior to reading the first assay well. Read time may be 0.5 second (500 mSec) per well.
A general note: Reporter assays use an easily measured gene product as a stand-in for the process of interest.

As a reminder, the EC50 is the concentration at which the effect is half-maximal.

Regarding `CC(C)c1onc(-c2c(Cl)cccc2Cl)c1COc1ccc2cc(-c3cccc(C(=O)O)c3)sc2c1` [Compound (1), reference compound], the EC50 lay in the range of 0.1 to 1 µM and the “Efficacy (%)” value is 220%.

Regarding `CC(C)c1onc(-c2c(Cl)cccc2Cl)c1COc1ccc2cc(-c3cccc(C(=O)NS(=O)(=O)c4ccc(C(C)(C)C)cc4)c3)sc2c1` [Example 312], the EC50 was in the range of 1 to 10 µM and the “Efficacy (%)” value is reported as 132%.

With `CC(C)c1onc(-c2c(Cl)cccc2Cl)c1COc1ccc2cc(-c3cccc(C(=O)NS(=O)(=O)C4CC4)c3)sc2c1` [Example 303], the EC50 lay within 0.1 to 1 µM and the “Efficacy (%)” value is 190%.

For `CC(C)c1onc(-c2c(Cl)cccc2Cl)c1COc1ccc2cc(-c3cccc(C(=O)NS(=O)(=O)N(C)C)c3)sc2c1` [Example 318], the EC50 lay within 0.1 to 1 µM and the “Efficacy (%)” value was determined as 116%.
